Measured values taken from patent US20230398130A1, “METHODS AND COMPOSITIONS FOR DIFFERENTIATING STEM CELLS” (Massachusetts Institute of Technology, priority 2020, published 2023).

Legend:
ISC-enriched organoids [1] = assay: Primary screen, 384-well 2.5-D organoid differentiation (ENR+CD, 6 days): carbachol-induced lysozyme secretion (LYZ.S); type: cell-based, murine; settings: primary screen, vs plate median
Description: (§1) High-throughput screening.

ISC-enriched organoids [2] = assay: Primary screen, 384-well 2.5-D organoid differentiation (ENR+CD, 6 days, Target Selective Inhibitor Library, vs whole-plate median): ATP (CellTiter-Glo 3D, CTG); settings: primary screen; for Dose.FC.CTG (log 2 fold change): vs plate median
ISC-enriched organoids [3] = assay: Primary screen, 384-well 2.5-D organoid differentiation (ENR+CD, 6 days): basal lysozyme secretion (LYZ.NS); type: cell-based, murine; settings: primary screen; for Dose.FC.LYZ.NS (log 2 fold change): vs plate median
Description: as §1

| Structure (SMILES) | Dose.FC.LYZ.S (log 2 fold change) (ISC-enriched organoids [1]; Dose 0.08 uM) | Dose.FC.LYZ.S (log 2 fold change) (ISC-enriched organoids [1]; Dose 0.40 uM) | Dose.FC.LYZ.S (log 2 fold change) (ISC-enriched organoids [1]; Dose 2.00 uM) | Dose.FC.LYZ.S (log 2 fold change) (ISC-enriched organoids [1]; Dose 10.00 uM) | Z.CTG (standard z score) (ISC-enriched organoids [2]; Dose 0.08 uM) | Dose.FC.CTG (log 2 fold change) (ISC-enriched organoids [2]; Dose 0.08 uM) | Z.CTG (standard z score) (ISC-enriched organoids [2]; Dose 0.40 uM) | Dose.FC.CTG (log 2 fold change) (ISC-enriched organoids [2]; Dose 0.40 uM) | Z.CTG (standard z score) (ISC-enriched organoids [2]; Dose 2.00 uM) | Dose.FC.CTG (log 2 fold change) (ISC-enriched organoids [2]; Dose 2.00 uM) | Z.CTG (standard z score) (ISC-enriched organoids [2]; Dose 10.00 uM) | Dose.FC.CTG (log 2 fold change) (ISC-enriched organoids [2]; Dose 10.00 uM) | Z.LYZ.NS (standard z score) (ISC-enriched organoids [3]; Dose 0.08 uM) | Dose.FC.LYZ.NS (log 2 fold change) (ISC-enriched organoids [3]; Dose 0.08 uM) | Z.LYZ.NS (standard z score) (ISC-enriched organoids [3]; Dose 0.40 uM) | Dose.FC.LYZ.NS (log 2 fold change) (ISC-enriched organoids [3]; Dose 0.40 uM) | Z.LYZ.NS (standard z score) (ISC-enriched organoids [3]; Dose 2.00 uM) | Dose.FC.LYZ.NS (log 2 fold change) (ISC-enriched organoids [3]; Dose 2.00 uM) | Z.LYZ.NS (standard z score) (ISC-enriched organoids [3]; Dose 10.00 uM) | Dose.FC.LYZ.NS (log 2 fold change) (ISC-enriched organoids [3]; Dose 10.00 uM) |
| --- | --- | --- | --- | --- | --- | --- | --- | --- | --- | --- | --- | --- | --- | --- | --- | --- | --- | --- | --- | --- |
| Cc1nnc(C(=O)NC(C)(C)c2nc(C(=O)NCc3ccc(F)cc3)c(O)c(=O)n2C)o1 [Raltegravir (MK-0518)] | 0.137 | 0.037 | 0.122 | 0.183 | 0.258 | 0.108 | 0.224 | 0.094 | 0.471 | 0.197 | 0.407 | 0.170 | 1.627 | 0.187 | 0.302 | 0.035 | 0.254 | 0.029 | 0.366 | 0.042 |
| CO[C@H]1C[C@@H]2CC[C@@H](C)[C@@](O)(O2)C(=O)C(=O)N2CCCC[C@H]2C(=O)O[C@H]([C@H](C)C[C@@H]2CC[C@@H](OP(C)(C)=O)[C@H](OC)C2)CC(=O)[C@H](C)/C=C(\C)[C@@H](O)[C@@H](OC)C(=O)[C@H](C)C[C@H](C)/C=C/C=C/C=C/1C [Ridaforolimus (Deforolimus, MK-8669)] | 0.050 | 0.069 | 0.019 | 0.039 | 1.011 | 0.423 | 0.157 | 0.066 | 0.659 | 0.276 | 0.505 | 0.211 | 0.041 | 0.005 | 1.012 | 0.116 | 0.646 | 0.074 | 0.237 | 0.027 |
| COc1cc(OC)c(/C=C/S(=O)(=O)Cc2ccc(OC)c(NCC(=O)O)c2)c(OC)c1 [Rigosertib (ON-01910)] | −0.309 | −0.355 | −0.340 | −0.330 | −2.162 | −0.905 | −3.069 | −1.285 | −3.984 | −1.668 | −2.022 | −0.847 | −2.105 | −0.242 | −1.831 | −0.210 | −2.306 | −0.265 | −2.107 | −0.242 |
| Cc1nn(-c2ccccc2)c(C)c1/C=N/N1CCN(Cc2ccccc2)CC1 [SANT-1] | 0.112 | 0.024 | 0.101 | −0.120 | 0.736 | 0.308 | 0.186 | 0.078 | 0.327 | 0.137 | −0.100 | −0.042 | 0.485 | 0.056 | 0.002 | 0.000 | 1.528 | 0.175 | −0.430 | −0.049 |
